Assays:
Format in all cases: in vivo
soybean = assay: Phytotoxicity to soybean, Example 6; settings: clothianidin none; flumioxazin 25 g/ha; day 11 after sowing
From the text: A soil was packed in a 1/5000a Wagner pot. The above soybean seeds were sown in the Wagner pot at a rate of two seeds per pot, and the seeds of Ipomoea hederacea were sown in the pot at a rate of three seeds per pot.
On day 11 after sowing of the seeds of soybean and Ipomoea hederacea, the herbicidal effect and phytotoxicity were examined.

Aulacorthum solani [1] = assay: Insecticidal effect (protective value), soybean pot test, Example 2; settings: thiamethoxam none; flumioxazin 50 g/ha; day 6 after release
Protocol: (§1) The evaluation of the insecticidal effect was performed by determining the life and death of the insects at the time of the investigation and calculating the protective value according to the following equation; Protective Value (%)=100×(1−T/C) wherein the symbols have the following meanings;
(§2) C: The number of insects at the time of observation in an untreated section: and
(§3) T: The number of insects at the time of observation in a treated section.
(§4) Thereafter, the test pot was placed in a greenhouse.

Ipomoea lacunosa = assay: Herbicidal activity, corn pot test, Example 59; settings: pyraclostrobin none, flumioxazin 25 g/ha, twelve days after sowing
Protocol: In a glass container measuring 60 mm in inner diameter and 20 mm in height, 8 mg of a pyraclostrobin emulsifiable concentrate (emulsifiable concentrate containing 23.8% pyraclostrobin, manufactured by BASF under the trade name of Comet) and 25 corn seeds were placed. After capping a glass container, the pyraclostrobin emulsifiable concentrate was adhered to the corn seeds by shaking the glass container by hand. In the same manner, 22 mg of the pyraclostrobin emulsifiable concentrate was adhered to the corn seeds.
A plastic pot measuring 194 mm in inner diameter and 176 mm in height was filled with the soil. In this pot, 2 corn seeds were sown per 1 pot and 10 seeds of Ipomoea lacunosa were sown per 1 pot. On the day of sowing of the corn seeds, after sowing the corn seeds, a water diluted solution (24.5 mg of product/liter) of a flumioxazin granular wettable powder (granular wettable powder containing 51% flumioxazin, manufactured by Valent USA Corporation under the trade name of Valor SX), a water diluted solution (66.7 mg of product/liter) of a sulfentrazone granular wettable powder (granular wettable powder containing 75% sulfentrazone, manufactured by FMC Corporation under the trade name of Cover), a water diluted solution (15 mg/liter) of saflufenacil and a water diluted solution (100 mg/liter) of oxyfluorfen were uniformly sprayed over a surface of the soil in each amount described in Tables 22 to 25, using a sprayer. The water diluted solutions of saflufenacil and oxyfluorfen were prepared by dissolving each predetermined amount of saflufenacil and oxyfluorfen in acetone containing 2% (w/v) Tween 20 and diluting each solution with water so as to adjust the concentration of acetone to 10% by volume.
Twelve days after sowing the seeds of corn and Ipomoea lacunose, herbicidal activity was examined.

Senna obtusifolia = assay: Herbicidal activity, soybean pot test, Example 58; settings: strobilurin seed treatment none, twelve days after sowing
Protocol: (§5) In a plastic cup measuring 65 mm in inner diameter and 75 mm in height, 4.8 mg of a pyraclostrobin emulsifiable concentrate (emulsifiable concentrate containing 23.8% pyraclostrobin, manufactured by BASF under the trade name of Comet) and 12 soybean seeds were placed. The pyraclostrobin emulsifiable concentrate was adhered to the soybean seeds by shaking this plastic cup by hand. In the same manner, 13.2 mg of the pyraclostrobin emulsifiable concentrate was adhered to the soybean seeds. In the same manner, 4.8 mg of an azoxystrobin suspension (emulsifiable concentrate containing 22.9% azoxystrobin, manufactured by Syngenta under the trade name of Amistar) was adhered to the soybean seeds. In the same manner, 20.4 mg of an azoxystrobin suspension was adhered to the soybean seeds.
(§6) A water diluted solution of a trifloxystrobin granular wettable powder (2.6%) was prepared by adding 52 mg of a trifloxystrobin granular wettable powder (granular wettable powder containing 50% trifloxystrobin, manufactured by Bayer Crop Science Inc. under the trade name of Flint) to 1 mL of desalted water. 51.6 mg of this water diluted solution and 12 soybean seeds were placed in the plastic cup. The water diluted solution of trifloxystrobin was adhered to the soybean seeds by shaking this plastic cup by hand. In the same manner, 199.2 mg of the water diluted solution of trifloxystrobin was adhered to the soybean seeds.
(§7) A plastic pot measuring 194 mm in inner diameter and 176 mm in height was filled with the soil. In this pot, 2 soybean seeds were sown per 1 pot and 10 seeds of Ipomoea hederacea var. integriuscula and Senna obtusifolia were sown per 1 pot. On the day of sowing of the soybean seeds, after sowing the soybean seed, a flumioxazin granule (granule containing 0.25% flumioxazin, manufactured by Valent USA Corporation under the trade name of BroadStar) was uniformly scattered over a surface of the soil in the amount described in Tables 19 to 21 by hand.
(§8) Twelve days after sowing the seeds of soybean, Ipomoea hederacea var. integriuscula and Senna obtusifolia, herbicidal activity was examined.

[2] = system: Ipomoea hederacea var. integriuscula; assay: Herbicidal activity, soybean pot test, Example 58; settings: strobilurin seed treatment none, twelve days after sowing
Protocol: as §5, §6, §7, §8

Digitaria ciliaris = assay: Herbicidal activity, soybean pot test, Example 75; settings: metalaxyl compound none, flumioxazin 50 g/ha, twelve days after sowing
Protocol: (§9) In a glass container measuring 60 mm in inner diameter and 20 mm in height, 12 mg of a metalaxyl emulsifiable concentrate (emulsifiable concentrate containing 25% metalaxyl, manufactured by Syngenta under the trade name of Subdue) and 20 soybean seeds were placed. After capping this glass container, the metalaxyl emulsifiable concentrate was adhered to the soybean seeds by shaking the glass container by hand. In the same manner, 47 mg of the metalaxyl emulsifiable concentrate was adhered to the soybean seeds. In the same manner, 9 mg of a metalaxyl-M emulsifiable concentrate (emulsifiable concentrate containing 33.3% metalaxyl-M manufactured by Syngeta under the trade name of Apron XL) was adhered to the soybean seeds. In the same manner, 40 mg of the metalaxyl-M emulsifiable concentrate was adhered to the soybean seeds.
(§10) A plastic pot measuring 194 mm in inner diameter and 176 mm in height was filled with the soil. In this pot, 2 soybean seeds were sown per 1 pot, 7 seeds of Ipomoea hederacea were sown per 1 pot, and 10 seeds of Digitaria ciliaris were sown per 1 pot. […]

Ipomoea hederacea = assay: Herbicidal activity, soybean pot test, Example 75; settings: metalaxyl compound none, flumioxazin 50 g/ha, twelve days after sowing
Protocol: as §9, §10

Aulacorthum solani [3] = assay: Insecticidal effect (protective value), soybean pot test, Example 1; settings: clothianidin none, day 6 after release
Protocol: as §1, §2, §3, §4

`C#CCN1C(=O)COc2cc(F)c(N3C(=O)C4=C(CCCC4)C3=O)cc21` [Flumioxazin, flumioxazin] was tested, and the “Phytotoxicity to Soybean” value (soybean) was “No harm”, the “Protective Value” (Aulacorthum solani [1]) was 0% and the Herbicidal activity (Ipomoea lacunosa) was 40. The “Herbicidal activity Senna obtusifolia” value (Senna obtusifolia; flumioxazin 25 g/ha) was 20, the “Herbicidal activity Senna obtusifolia” value (Senna obtusifolia; flumioxazin 100 g/ha) was 45 and the “Herbicidal activity Ipomoea hederacea var. integriuscula” value ([2]; flumioxazin 25 g/ha) was 25. The “Herbicidal activity Ipomoea hederacea var. integriuscula” value ([2]; flumioxazin 100 g/ha) was 85, the “Herbicidal activity Digitaria ciliaris” value (Digitaria ciliaris) was 75 and the “Herbicidal activity Ipomoea hederacea” value (Ipomoea hederacea) was 55. For the same compound, the “Protective Value” (Aulacorthum solani [3]; flumioxazin 12.5 g/ha) was 0% and the “Protective Value” (Aulacorthum solani [3]; flumioxazin 25 g/ha) was 0%.

Source: US8859463B2, “Method for controlling noxious organisms” (Sumitomo Chemical Company, Limited, priority 2009, dated 2014)
